Test results published in ChEMBL document CHEMBL1133151 (2000).

Assays:
[1] = biological target: T1, Voltage-gated L-type calcium channel (Rattus norvegicus, UniProt P22002+Q02485+P27732); test: Inhibition of L-type [Ca2+] channel (VSCC) in rat A7r5 vascular smooth muscle cells
[2] = biological target: T2, Voltage-dependent N-type calcium channel subunit alpha-1B (Homo sapiens, UniProt Q00975); test: Inhibition of N-type calcium channel (VSCC) in IMR-32 at 10 uM
Target sequence in this assay (Q00975 whole entry): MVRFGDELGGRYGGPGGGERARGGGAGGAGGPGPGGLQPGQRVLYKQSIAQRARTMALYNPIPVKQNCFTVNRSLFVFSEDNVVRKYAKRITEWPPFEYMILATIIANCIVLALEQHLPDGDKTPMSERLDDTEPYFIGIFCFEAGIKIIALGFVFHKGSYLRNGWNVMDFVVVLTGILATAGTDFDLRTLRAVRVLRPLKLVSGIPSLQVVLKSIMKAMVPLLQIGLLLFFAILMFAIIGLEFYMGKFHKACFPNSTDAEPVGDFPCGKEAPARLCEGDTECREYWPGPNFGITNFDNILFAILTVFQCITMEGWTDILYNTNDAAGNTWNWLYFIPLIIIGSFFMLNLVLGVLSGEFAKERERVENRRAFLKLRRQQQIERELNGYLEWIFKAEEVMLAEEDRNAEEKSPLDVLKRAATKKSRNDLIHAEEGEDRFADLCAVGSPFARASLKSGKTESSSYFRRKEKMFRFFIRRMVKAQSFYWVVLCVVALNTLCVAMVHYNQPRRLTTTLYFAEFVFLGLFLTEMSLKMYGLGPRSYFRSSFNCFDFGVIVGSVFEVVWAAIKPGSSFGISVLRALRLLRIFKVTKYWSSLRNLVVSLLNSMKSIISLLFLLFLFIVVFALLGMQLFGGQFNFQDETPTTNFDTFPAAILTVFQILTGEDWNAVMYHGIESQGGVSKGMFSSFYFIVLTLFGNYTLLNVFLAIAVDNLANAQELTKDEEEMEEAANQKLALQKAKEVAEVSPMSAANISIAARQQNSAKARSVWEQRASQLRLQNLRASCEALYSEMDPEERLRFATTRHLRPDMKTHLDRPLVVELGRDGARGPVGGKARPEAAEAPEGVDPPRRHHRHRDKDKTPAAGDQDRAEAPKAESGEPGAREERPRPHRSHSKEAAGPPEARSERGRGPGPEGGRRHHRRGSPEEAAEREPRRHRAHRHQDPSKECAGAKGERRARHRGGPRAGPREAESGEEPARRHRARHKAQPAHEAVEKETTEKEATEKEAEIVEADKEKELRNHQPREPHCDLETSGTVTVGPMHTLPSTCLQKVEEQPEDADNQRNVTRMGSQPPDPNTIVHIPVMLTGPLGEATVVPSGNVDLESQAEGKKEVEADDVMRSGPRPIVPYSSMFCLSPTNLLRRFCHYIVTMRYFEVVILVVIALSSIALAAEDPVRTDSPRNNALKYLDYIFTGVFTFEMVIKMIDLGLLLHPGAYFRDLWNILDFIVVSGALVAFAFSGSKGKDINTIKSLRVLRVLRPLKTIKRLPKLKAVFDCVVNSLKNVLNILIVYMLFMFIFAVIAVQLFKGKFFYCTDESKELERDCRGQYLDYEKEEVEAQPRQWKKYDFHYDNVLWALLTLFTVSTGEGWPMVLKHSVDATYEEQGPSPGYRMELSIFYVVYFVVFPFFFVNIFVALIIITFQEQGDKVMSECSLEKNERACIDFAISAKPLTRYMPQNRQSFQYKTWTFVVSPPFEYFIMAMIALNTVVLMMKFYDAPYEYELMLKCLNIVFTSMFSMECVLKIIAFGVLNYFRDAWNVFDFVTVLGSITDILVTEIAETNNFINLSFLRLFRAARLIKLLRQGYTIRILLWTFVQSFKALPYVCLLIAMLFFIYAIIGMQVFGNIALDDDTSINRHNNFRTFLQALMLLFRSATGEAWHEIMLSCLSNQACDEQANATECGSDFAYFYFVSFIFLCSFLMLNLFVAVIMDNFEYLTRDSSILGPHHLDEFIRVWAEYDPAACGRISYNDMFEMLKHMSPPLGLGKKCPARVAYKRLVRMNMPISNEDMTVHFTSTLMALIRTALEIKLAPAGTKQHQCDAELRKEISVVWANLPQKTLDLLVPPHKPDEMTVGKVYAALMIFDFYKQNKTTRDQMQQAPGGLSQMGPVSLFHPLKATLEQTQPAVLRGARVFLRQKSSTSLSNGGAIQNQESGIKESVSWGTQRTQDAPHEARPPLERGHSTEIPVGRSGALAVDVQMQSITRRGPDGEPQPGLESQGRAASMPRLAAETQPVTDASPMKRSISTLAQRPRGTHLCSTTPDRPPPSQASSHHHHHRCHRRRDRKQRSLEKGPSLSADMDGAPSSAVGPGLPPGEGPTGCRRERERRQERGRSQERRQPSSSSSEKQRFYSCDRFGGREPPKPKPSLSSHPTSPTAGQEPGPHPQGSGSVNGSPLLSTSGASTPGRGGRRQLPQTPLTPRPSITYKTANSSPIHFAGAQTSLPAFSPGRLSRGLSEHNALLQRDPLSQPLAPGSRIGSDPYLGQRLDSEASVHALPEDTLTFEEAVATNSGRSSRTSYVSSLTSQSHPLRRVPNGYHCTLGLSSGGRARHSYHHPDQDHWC

[3] = biological target: T1, Voltage-gated L-type calcium channel; test: Inhibition of L-type [Ca2+] channel (VSCC) in rat A7r5 vascular smooth muscle cells; remark: listed apart in the source
[4] = biological target: T2, Voltage-dependent N-type calcium channel subunit alpha-1B; test: Inhibition of N-type calcium channel (VSCC) in IMR-32 at 10 uM
Target sequence in this assay (Q00975 whole entry, looked up): as the sequence (Q00975 whole entry) above

Compound	IC50 [1]	IC50 [2]	Inhibition [3]	inhibition [4]
CC(C)Oc1cc(OCCc2ccc(C(=N)N)cc2)cc(OCc2ccccc2CCc2cccc(O)c2)c1	3 µM	2.7 µM	–	–
CC(C)CCOc1cc(OCCCc2ccccc2OCCCc2ccc(O)cc2)cc(OCCc2ccc(C(=N)N)cc2)c1	–	–	69%	19%
CC(C)Oc1cc(OCCc2ccc(C(=N)N)cc2)cc(OCc2ccccc2CCc2ccc(O)cc2)c1	4.2 µM	3.3 µM	–	–
